How the values were obtained:
rape = assay: Test B pre/postemergence rape; type: in vivo, Brassica napus
Method in brief: (§1)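 Herbicidal effect was estimated by eye on a ten-point control scale after plants spent twelve to sixteen days in a greenhouse following soil or foliar treatment. Foliar sprays targeted plants at one to four leaves; all doses were formulated in a non-phytotoxic solvent with surfactant.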

sugar beet = assay: Test B pre/postemergence sugar beet; type: in vivo, Beta vulgaris
Method in brief: as §1

pigweed = assay: Test B pre/postemergence pigweed; type: in vivo, Amaranthus retroflexus
Method in brief: as §1

morningglory = assay: Test B pre/postemergence morningglory; type: in vivo, Ipomoea hederacea
Method in brief: as §1

rice = assay: Test B flood test rice; type: in vivo, Oryza sativa
Method in brief: (§2)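 Each value is a visual injury score relative to controls, with 10 meaning complete control and 0 no effect. Evaluation took place twelve to sixteen days after the 2-leaf-stage plants were treated and kept in the greenhouse.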

duck salad = assay: Test B flood test duck salad; type: in vivo, Heteranthera limosa
Method in brief: as §2

soybean = assay: Test B pre/postemergence soybean; type: in vivo, Glycine max
Method in brief: as §1

corn = assay: Test B pre/postemergence corn; type: in vivo, Zea mays
Method in brief: as §1

purple nutsedge = assay: Test B pre/postemergence purple nutsedge; type: in vivo, Cyperus rotundus
Method in brief: as §1

crabgrass = assay: Test B pre/postemergence crabgrass; type: in vivo, Digitaria sanguinalis
Method in brief: as §1

cocklebur = assay: Test B pre/postemergence cocklebur; type: in vivo, Xanthium strumarium
Method in brief: as §1

wild oat = assay: Test B pre/postemergence wild oat; type: in vivo, Avena fatua
Method in brief: as §1

giant foxtail = assay: Test B pre/postemergence giant foxtail; type: in vivo, Setaria faberii
Method in brief: as §1

wheat = assay: Test B pre/postemergence wheat; type: in vivo, Triticum aestivum
Method in brief: as §1

bamyardgrass = assay: Test B flood test barnyardgrass; type: in vivo, Echinochloa crus-galli
Method in brief: as §2

velvetleaf = assay: Test B pre/postemergence velvetleaf; type: in vivo, Abutilon theophrasti
Method in brief: as §1

[1] = Preemergence, Rate 62 g/ha, scale of 0 to 10 where 0 is no effect and 10 is complete control
[2] = Preemergence, Rate 125 g/ha, 0 is no effect, 10 is complete control
[3] = Preemergence, Rate 250 g/ha, scale 0 to 10, 0 is no effect, 10 is complete control
[4] = Preemergence, Rate 500 g/ha, scale 0 to 10 (0 no effect, 10 complete control)
[5] = Rate 62 g/ha, Postemergence, scale of 0 to 10 where 0 is no effect and 10 is complete control
[6] = Rate 125 g/ha, Postemergence, scale 0 to 10
[7] = Rate 500 g/ha, Postemergence, scale 0 to 10
[8] = Rate 62 g/ha, headed Pre-emergence (flood test species), scale 0 to 10 (0 no effect, 10 complete control)
[9] = Rate 125 g/ha, Pre-emergence, flood test species, scale 0 to 10 where 0 is no effect and 10 is complete control
[10] = Rate 250 g/ha, Pre-emergence, flood-test species, scale 0 to 10, 0 is no effect, 10 is complete control
[11] = Rate 500 g/ha, headed Pre-emergence (flood test species), scale 0 to 10 (0 no effect, 10 complete control)

## Cc1nc(C)c(Cn2c(=O)on(C(=O)N(c3ccc(Cl)cc3)C(C)C)c2=O)s1 [Compound 191]
rape; [1]
  Rape plant response rating: 0
rape; [2]
  Rape plant response rating (0 to 10 scale): 0
rape; [3]
  Rape plant response rating: 0
rape; [4]
  Rape plant response rating: 0
rape; [5]
  Rape plant response rating: 0
rape; [6]
  Rape plant response rating: 0
rape; Rate 250 g/ha, Postemergence
  Plant response rating (0 to 10; 0 is no effect, 10 is complete control), Rape: 0
rape; [7]
  Rape plant response rating: 0
Sugar beet; [1]
  Sugarbeets plant response rating: 0
Sugar beet; [2]
  Sugarbeets plant response rating (0 to 10 scale): 0
Sugar beet; [3]
  Sugarbeets plant response rating: 0
Sugar beet; [4]
  Sugarbeets plant response rating: 0
Sugar beet; [5]
  Sugarbeets plant response rating: 0
Sugar beet; [6]
  Sugarbeets plant response rating: 0
Sugar beet; Rate 250 g/ha, Postemergence
  Plant response rating (0 to 10; 0 is no effect, 10 is complete control), Sugarbeets: 0
Sugar beet; [7]
  Sugarbeets plant response rating: 0
pigweed; [1]
  Redroot pigweed plant response rating: 0
pigweed; [2]
  Redroot pigweed plant response rating (0 to 10 scale): 0
pigweed; [3]
  Redroot pigweed plant response rating: 1
pigweed; [4]
  Redroot pigweed plant response rating: 6
pigweed; [5]
  Redroot pigweed plant response rating: 0
pigweed; [6]
  Redroot pigweed plant response rating: 0
pigweed; Rate 250 g/ha, Postemergence
  Plant response rating (0 to 10; 0 is no effect, 10 is complete control), Redroot pigweed: 0
pigweed; [7]
  Redroot pigweed plant response rating: 0
morningglory; [1]
  Morningglory plant response rating: 0
morningglory; [3]
  Morningglory plant response rating: 0
morningglory; [4]
  Morningglory plant response rating: 0
morningglory; [5]
  Morningglory plant response rating: 1
morningglory; [6]
  Morningglory plant response rating: 2
morningglory; Rate 250 g/ha, Postemergence
  Plant response rating (0 to 10; 0 is no effect, 10 is complete control), Morningglory: 2
morningglory; [7]
  Morningglory plant response rating: 8
rice; [8]
  Rice plant response rating: 0
rice; [9]
  Rice plant response rating: 0
rice; [10]
  Rice plant response rating: 0
rice; [11]
  Plant response rating, Rice: 0
Duck salad; [8]
  Ducksalad plant response rating: 0
Duck salad; [9]
  Ducksalad plant response rating: 0
Duck salad; [10]
  Ducksalad plant response rating: 0
Duck salad; [11]
  Plant response rating, Ducksalad: 0
soybean; [1]
  Soybean plant response rating: 0
soybean; [2]
  Soybean plant response rating (0 to 10 scale): 0
soybean; [3]
  Soybean plant response rating: 0
soybean; [4]
  Soybean plant response rating: 0
soybean; [5]
  Soybean plant response rating: 3
soybean; [6]
  Soybean plant response rating: 3
soybean; Rate 250 g/ha, Postemergence
  Plant response rating (0 to 10; 0 is no effect, 10 is complete control), Soybean: 3
soybean; [7]
  Soybean plant response rating: 4
corn; [1]
  Corn plant response rating: 0
corn; [2]
  Corn plant response rating (0 to 10 scale): 0
corn; [3]
  Corn plant response rating: 0
corn; [4]
  Corn plant response rating: 0
corn; [5]
  Corn plant response rating: 0
corn; [6]
  Corn plant response rating: 0
corn; Rate 250 g/ha, Postemergence
  Plant response rating (0 to 10; 0 is no effect, 10 is complete control), Corn: 0
corn; [7]
  Corn plant response rating: 0
Purple nutsedge; [1]
  Nutsedge plant response rating: 0
Purple nutsedge; [2]
  Nutsedge plant response rating (0 to 10 scale): 0
Purple nutsedge; [3]
  Nutsedge plant response rating: 0
Purple nutsedge; [4]
  Nutsedge plant response rating: 0
Purple nutsedge; [5]
  Nutsedge plant response rating: 0
Purple nutsedge; [6]
  Nutsedge plant response rating: 0
Purple nutsedge; Rate 250 g/ha, Postemergence
  Plant response rating (0 to 10; 0 is no effect, 10 is complete control), Nutsedge: 0
Purple nutsedge; [7]
  Nutsedge plant response rating: 0
crabgrass; [1]
  Crabgrass plant response rating: 0
crabgrass; [2]
  Crabgrass plant response rating (0 to 10 scale): 3
crabgrass; [3]
  Crabgrass plant response rating: 8
crabgrass; [4]
  Crabgrass plant response rating: 8
crabgrass; [5]
  Crabgrass plant response rating: 2
crabgrass; [6]
  Crabgrass plant response rating: 2
crabgrass; Rate 250 g/ha, Postemergence
  Plant response rating (0 to 10; 0 is no effect, 10 is complete control), Crabgrass: 3
crabgrass; [7]
  Crabgrass plant response rating: 6
cocklebur; [1]
  Cocklebur plant response rating: 0
cocklebur; [2]
  Cocklebur plant response rating (0 to 10 scale): 0
cocklebur; [3]
  Cocklebur plant response rating: 0
cocklebur; [4]
  Cocklebur plant response rating: 0
cocklebur; [5]
  Cocklebur plant response rating: 1
cocklebur; [6]
  Cocklebur plant response rating: 2
cocklebur; Rate 250 g/ha, Postemergence
  Plant response rating (0 to 10; 0 is no effect, 10 is complete control), Cocklebur: 2
cocklebur; [7]
  Cocklebur plant response rating: 3
Wild oat; [3]
  Wild oats plant response rating: 3
Wild oat; [4]
  Wild oats plant response rating: 7
Wild oat; [5]
  Wild oats plant response rating: 0
Wild oat; [6]
  Wild oats plant response rating: 0
Wild oat; Rate 250 g/ha, Postemergence
  Plant response rating (0 to 10; 0 is no effect, 10 is complete control), Wild oats: 0
Giant foxtail; [1]
  Giant foxtail plant response rating: 3
Giant foxtail; [2]
  Giant foxtail plant response rating (0 to 10 scale): 8
Giant foxtail; [3]
  Giant foxtail plant response rating: 9
Giant foxtail; [4]
  Giant foxtail plant response rating: 10
Giant foxtail; [5]
  Giant foxtail plant response rating: 0
Giant foxtail; [6]
  Giant foxtail plant response rating: 0
Giant foxtail; Rate 250 g/ha, Postemergence
  Plant response rating (0 to 10; 0 is no effect, 10 is complete control), Giant foxtail: 0
Giant foxtail; [7]
  Giant foxtail plant response rating: 2
wheat; [1]
  Wheat plant response rating: 0
wheat; [3]
  Wheat plant response rating: 0
wheat; [4]
  Wheat plant response rating: 2
wheat; [5]
  Wheat plant response rating: 0
wheat; [6]
  Wheat plant response rating: 0
wheat; Rate 250 g/ha, Postemergence
  Plant response rating (0 to 10; 0 is no effect, 10 is complete control), Wheat: 0
bamyardgrass; [8]
  Barnyardgrass plant response rating: 0
bamyardgrass; [9]
  Barnyardgrass plant response rating: 0
bamyardgrass; [10]
  Barnyardgrass plant response rating: 0
bamyardgrass; [11]
  Plant response rating, Barnyardgrass: 0
velvetleaf; [1]
  Velvetleaf plant response rating: 0
velvetleaf; [3]
  Velvetleaf plant response rating: 0
velvetleaf; [4]
  Velvetleaf plant response rating: 0
velvetleaf; [5]
  Velvetleaf plant response rating: 0
velvetleaf; [6]
  Velvetleaf plant response rating: 0
velvetleaf; Rate 250 g/ha, Postemergence
  Plant response rating (0 to 10; 0 is no effect, 10 is complete control), Velvetleaf: 2

Source: patent publication US6737383B1, “Herbicidal oxadiazolidines” (priority 1999, dated 2004)
